# Experimental data reported in patent US8188082B2, “5,6,7,8-tetrahydro-imidazo[1,5-α]pyrazine derivatives” (Actelion Pharmaceuticals Ltd., priority 2006, dated 2012).
# Assays:
# human orexin-2 receptor = target: T1, human orexin-2 receptor (Homo sapiens, UniProt O43614); experiment: Intracellular calcium measurements (FLIPR), orexin receptor antagonistic activity, OX2; format: cell-based; conditions: CHO cells expressing human orexin-2 receptor; 10 nM orexin-A as agonist
# T1 construct: expressed in transfected cells; host or cells: CHO cells (G418 selection)
# T1 sequence (O43614 1-444): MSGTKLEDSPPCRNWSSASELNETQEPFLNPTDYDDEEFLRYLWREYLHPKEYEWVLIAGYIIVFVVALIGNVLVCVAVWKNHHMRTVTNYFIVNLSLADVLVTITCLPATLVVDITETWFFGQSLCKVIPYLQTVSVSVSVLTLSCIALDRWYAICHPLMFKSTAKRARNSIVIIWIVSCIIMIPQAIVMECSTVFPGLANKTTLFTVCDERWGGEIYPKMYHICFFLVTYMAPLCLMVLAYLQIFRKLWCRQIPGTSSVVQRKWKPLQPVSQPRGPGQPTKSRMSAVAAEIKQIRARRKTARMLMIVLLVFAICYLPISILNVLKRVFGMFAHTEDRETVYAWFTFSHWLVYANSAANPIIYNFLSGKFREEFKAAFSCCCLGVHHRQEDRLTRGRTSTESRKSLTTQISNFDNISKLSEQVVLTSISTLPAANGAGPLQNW
# Procedure: (§1) Intracellular Calcium Measurements:
# (§2) Chinese hamster ovary (CHO) cells expressing the human orexin-1 receptor and the human orexin-2 receptor, respectively, are grown in culture medium (Ham F-12 with L-Glutamine) containing 300 μg/ml G418, 100 U/ml penicillin, 100 μg/ml streptomycin and 10% inactivated fetal calf serum (FCS). The cells are seeded at 80,000 cells/well into 96-well black clear bottom sterile plates (Costar) which have been precoated with 1% gelatine in Hanks' Balanced Salt Solution (HBSS). All reagents are from Gibco BRL. The seeded plates are incubated overnight at 37° C. in 5% CO2.
# (§3) Human orexin-A as an agonist is prepared as 1 mM stock solution in MeOH:water (1:1), diluted in HBSS containing 0.1% bovine serum albumin (BSA) and 2 mM HEPES for use in the assay at a final concentration of 10 nM.
# (§4) Antagonists are prepared as 10 mM stock solution in DMSO, then diluted in 96-well plates, first in DMSO, then in HBSS containing 0.1% bovine serum albumin (BSA) and 2 mM HEPES.
# (§5) On the day of the assay, 100 μl of loading medium (HBSS containing 1% FCS, 2 mM HEPES, 5 mM probenecid (Sigma) and 3 μM of the fluorescent calcium indicator fluo-3 AM (1 mM stock solution in DMSO with 10% pluronic acid) (Molecular Probes) is added to each well.
# (§6) The 96-well plates are incubated for 60 min at 37° C. in 5% CO2. The loading solution is then aspirated and cells are washed 3 times with 200 μl HBSS containing 2.5 mM probenecid, 0.1% BSA, 2 mM HEPES. 100 μl of that same buffer is left in each well.
# (§7) Within the Fluorescent Imaging Plate Reader (FLIPR, Molecular Devices), antagonists are added to the plate in a volume of 50 μl, incubated for 20 min and finally 100 μl of agonist is added. Fluorescence is measured for each well at 1 second intervals, and the height of each fluorescence peak is compared to the height of the fluorescence peak induced by 10 nM orexin-A with buffer in place of antagonist. For each antagonist, IC50 value (the concentration of compound needed to inhibit 50% of the agonistic response) is determined.
# human orexin-1 receptor = target: T2, human orexin-1 receptor (Homo sapiens, UniProt O43613); experiment: Intracellular calcium measurements (FLIPR), orexin receptor antagonistic activity, OX1; format: cell-based; conditions: CHO cells expressing human orexin-1 receptor; 10 nM orexin-A as agonist
# T2 construct: expressed in transfected cells; host or cells: CHO cells (G418 selection)
# T2 sequence (O43613 1-425): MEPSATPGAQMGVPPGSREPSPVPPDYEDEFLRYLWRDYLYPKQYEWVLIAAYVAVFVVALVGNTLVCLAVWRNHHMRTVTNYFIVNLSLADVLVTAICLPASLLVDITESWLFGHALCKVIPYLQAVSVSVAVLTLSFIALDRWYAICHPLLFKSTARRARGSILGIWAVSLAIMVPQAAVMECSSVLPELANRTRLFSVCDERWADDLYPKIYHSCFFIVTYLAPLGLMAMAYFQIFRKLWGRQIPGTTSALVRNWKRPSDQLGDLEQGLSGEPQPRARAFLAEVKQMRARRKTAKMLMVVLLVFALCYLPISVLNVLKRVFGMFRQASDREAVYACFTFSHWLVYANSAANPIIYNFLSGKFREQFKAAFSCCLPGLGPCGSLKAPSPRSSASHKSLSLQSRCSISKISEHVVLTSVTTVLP
# Procedure: as §1, §2, §3, §4, §5, §6, §7
IC50 (human orexin-2 receptor) [nM],IC50 (human orexin-1 receptor) [nM],Compound
11,36,CNC(=O)[C@@H](c1ccccc1)N1CCn2c(C)nc(Cl)c2C1CCc1ccc(C)c(C)c1 (mixture of isomers) [11 (8S; 2′R)/(8R; 2′R)]
33,2060,CNC(=O)[C@@H](c1ccccc1)N1CCn2c(COC)nc(Cl)c2C1CCc1ccc(C(F)(F)F)cc1 (mixture of isomers) [16 (8S; 2′R)/(8R; 2′R)]
115,≥ 10000,CNC(=O)[C@@H](c1ccccc1)N1CCn2c(C)nc(C)c2C1CCc1ccc(OC)cc1OC (mixture of isomers) [25 (8S; 2′R)/(8R; 2′R)]
11,279,CNC(=O)[C@@H](c1ccccc1)N1CCn2c(Cl)nc(Cl)c2C1CCc1ccc(C(F)(F)F)cc1 (mixture of isomers) [33 (8S; 2′R)/(8R; 2′R)]
14,72,"CNC(=O)[C@@H](c1ccccc1)N1CCn2c(C)nc(Cl)c2[C@H]1CCc1cc(F)c(C)c(F)c1 [10 (8R; 2′R), (R)-2′-{1-chloro-(R)-8-[2-(3,5-difluoro-4-methyl-phenyl)-ethyl]-3-methyl-5,6-dihydro-8H-imidazo[1,5-a]pyrazin-7-yl}-N-methyl-2′-phenyl-acetamide]"
15,807,"CCc1nc(C(F)(F)F)c2n1CCN([C@@H](C(=O)NC)c1ccccc1)[C@H]2CCc1ccc(C(F)(F)F)cc1 [15 (8S; 2′R), (R)-2′-{3-ethyl-1-trifluoromethyl-(S)-8-[2-(4-trifluoromethyl-phenyl)-ethyl]-5,6-dihydro-8H-imidazo[1,5-a]pyrazin-7-yl}-N-methyl-2′-phenyl-acetamide]"
4,5,"CCc1nc(OC)c2n1CCN([C@@H](C(=O)NC)c1ccccc1)[C@H]2CCc1ccc(C)c(C)c1 [27 (8S; 2′R), (R)-2′-{(S)-8-[2-(3,4-dimethyl-phenyl)-ethyl]-3-ethyl-1-methoxy-5,6-dihydro-8H-imidazo[1,5-a]pyrazin-7-yl}-N-methyl-2′-phenyl-acetamide]"
29,176,"C=Cc1nc(CC)n2c1[C@H](CCc1ccc(C(F)(F)F)cc1)N([C@@H](C(=O)NC)c1ccccc1)CC2 [28 (8S; 2′R), (R)-2′-{3-ethyl-(S)-8-[2-(4-trifluoromethyl-phenyl)-ethyl]-1-vinyl-5,6-dihydro-8H-imidazo[1,5-a]pyrazin-7-yl}-N-methyl-2′-phenyl-acetamide]"
14,17,"CCc1nc(Cl)c2n1CCN([C@@H](C(=O)NC)c1ccccc1)[C@H]2CCc1cc(F)c(OC)c(F)c1 [36 (8S; 2′R), (R)-2′-{1-chloro-(S)-8-[2-(3,5-difluoro-4-methoxy-phenyl)-ethyl]-3-ethyl-5,6-dihydro-8H-imidazo[1,5-a]pyrazin-7-yl}-N-methyl-2′-phenyl-acetamide]"
14,538,"CNC(=O)[C@@H](c1ccccc1)N1CCn2c(C)nc(C#N)c2[C@@H]1CCc1ccc(C(F)(F)F)c(F)c1 [43 (8S; 2′R), (R)-2′-{1-cyano-(S)-8-[2-(3-fluoro-4-trifluoromethyl-phenyl)-ethyl]-3-methyl-5,6-dihydro-8H-imidazo[1,5-a]pyrazin-7-yl}-N-methyl-2′-phenyl-acetamide]"
21,762,"CNC(=O)[C@@H](c1ccccc1)N1CCn2c(C)nc(C3CC3)c2[C@@H]1CCc1ccc(C(F)(F)F)cc1 [46 (8S; 2′R), (R)-2′-{1-cyclopropyl-3-methyl-(S)-8-[2-(4-trifluoromethyl-phenyl)-ethyl]-5,6-dihydro-8H-imidazo[1,5-a]pyrazin-7-yl}-N-methyl-2′-phenyl-acetamide]"
2,412,"CCc1nc(Cl)c2n1CCN([C@@H](C(=O)NC)c1ccccc1)[C@H]2COc1cccc(C(F)(F)F)c1 [53 (8R; 2′R), (R)-2′-[1-chloro-3-ethyl-(R)-8-(3-trifluoromethyl-phenoxymethyl)-5,6-dihydro-8H-imidazo[1,5-a]pyrazin-7-yl]-N-methyl-2′-phenyl-acetamide]"
